The target of the test is T1, HIV integrase (Human immunodeficiency virus type 1 group M subtype B, UniProt P12497, F1332H).
T1 construct: HIV integrase full length gene; made in house; host or cells: Escherichia coli BL21(DE3), plasmid pET21a-INH
As to the kind of experiment: Determination of enzyme (HIV integrase) inhibitory activity. Format: biochemical. The conditions noted are these: recombinant HIV integrase (F185H), strand transfer ELISA, absorbance at 450 nm. The text has this: The following explains evaluation methods of the HIV integrase inhibitory activity of the compound of the present invention.
(i) Construction of Recombinant Integrase Gene Expression System
The 185th phenylalanine of HIV integrase full length gene (J. Virol., 67, 425–437 (1993)) was substituted by histidine and inserted into the restriction enzyme NdeI and XhoI sites of plasmid pET21a(+) (Novagen), whereby an integrase expression vector pET21a-INH was constructed.
(ii) Production and Purification of Integrase Protein
Escherichia coli recombinant BL21(DE3) transformed with plasmid pET21a-INH obtained in (i) was shake cultured at 37° C. in a liquid medium containing ampicillin. When the culture reached the logarithmic growth phase, isopropyl-β-D-thiogalactopyranoside was added to promote expression of integrase gene. The culture was continued for 3 hr to promote accumulation of the integrase protein. The recombinant E. coli was collected in pellets by centrifugal separation and preserved at −80° C.
The E. coli was suspended in Lysis buffer (20 mM HEPES (pH 7.5), 5 mM DTT, 10 mM CHAPS, 10% glycerol) containing 1M sodium chloride and subjected to repeat pressurization and depressurization for rupture, and centrifugal separation at 4° C., 40,000×g, 60 min to recover a water-soluble fraction (supernatant). This was diluted 10-fold with Lysis buffer free of sodium chloride, mixed with SP-Sepharose (Pharmacia Corporation) and stirred at 4° C. for 30 min to allow adsorption of integrase protein to the resin. The resin was washed with Lysis buffer containing 100 mM sodium chloride and the integrase protein was eluted with Lysis buffer containing 1M sodium chloride.
The eluted integrase protein solution was applied to a Superdex 75 (Pharmacia Corporation) column for gel filtration. The protein was eluted with Lysis buffer containing 1M sodium chloride.
The obtained fractions of the integrase protein were collected and preserved at −80° C.
(iii) Preparation of DNA Solution
The following DNA synthesized by Greiner was dissolved in TE buffer (10 mM Tris-hydrochloric acid (pH 8.0), 1 mM EDTA) and mixed with donor DNA, target DNA, and each complementary strand (+ and − strands) to 1 μM. The mixture was heated at 95° C. for 5 min, 80° C. for 10 min, 70° C. for 10 min, 60° C. for 10 min, 50° C. for 10 min and 40° C. for 10 min and preserved at 25° C. to give a double stranded DNA, which was used for the test.
Donor DNA (− strand having biotin attached to the 5′ terminal)
(iv) Determination of Enzyme (HIV Integrase) Inhibitory Activity
The donor DNA was diluted with TE buffer to 10 nM, of which 50 μl was added to each well of streptavidin-coated microtiter plate (Roche) and allowed to adsorb at 37° C. for 60 min. The DNA was washed with phosphate buffer (Dulbecco PBS, Sanko Junyaku Co., Ltd.) containing 0.1% Tween 20 and phosphate buffer. Then, a reaction mixture (70 μl) having the following composition, a test substance (10 μl) diluted with the reaction mixture and 100 μg/ml integrase protein (10 μl) were added to each well and reacted at 37° C. for 60 min.
Composition of the reaction mixture: 30 mM MOPS (3-morpholinopropanesulfonic acid), 5 mM magnesium chloride, 3 mM DTT (dithiothreitol), 0.1 mg/ml BSA (bovine serum albumin), 5% glycerol, 10% DMSO (dimethyl sulfoxide), 0.01% Tween 20.
Then, 50 nM target DNA (10 μl) was added, reacted at 37° C. for 10 min and washed with phosphate buffer containing 0.1% Tween 20 to stop the reaction.
Then, 100 mU/ml peroxidase labeled anti-digoxigenin antibody solution (Roche, 100 μl) was added, and the mixture was reacted at 30° C. for 60 min, followed by washing with phosphate buffer containing 0.1% Tween 20.
A peroxidase color solution (Bio Rad, 100 μl) was added and allowed to react at room temperature for 4 min. The color reaction was stopped by adding 1N sulfuric acid (100 μl). The absorbance at 450 nm was measured. […]
For orientation: In an ELISA, binding on a coated surface is turned into a signal by an enzyme label.

SMILES strings stand for the structures. Counter-ions that a name gives are not always drawn. A value given as a limit tells only on which side of the number the result lay.

A word on the IC50: it is the concentration at which inhibition is half-maximal. On to `CC(C)Oc1ccc(CN2CCn3cc(-c4nccs4)c(=O)c(O)c3C2=O)cc1Cl` [Example 355, 2-(3-chloro-4-isopropoxybenzyl)-9-hydroxy-7-(thiazol-2-yl)-3,4-dihydro-2H-pyrido[1,2-a]pyrazine-1,8-dione hydrochloride], for which the 50% inhibitory concentration (IC50) was in the range of 10 to 100 nM.
As to `CC(C)(C)C(=O)c1cn2ccn(Cc3ccc(F)c(Cl)c3)c(=O)c2c(O)c1=O` [Example 217, 2-(3-chloro-4-fluorobenzyl)-7-(2,2-dimethylpropionyl)-9-hydroxy-2H-pyrido[1,2-a]pyrazine-1,8-dione hydrochloride], the IC50 is less than 10 nM.
Take `O=C1c2c(O)c(=O)c(-c3nccs3)cn2CCN1Cc1cc(Cl)cc(OCc2ccccc2)c1` [Example 398, 2-(3-benzyloxy-5-chlorobenzyl)-9-hydroxy-7-(thiazol-2-yl)-3,4-dihydro-2H-pyrido[1,2-a]pyrazine-1,8-dione hydrochloride]: the IC50 lay within 10 to 100 nM.
For `O=C1c2c(O)c(=O)c(-c3nccs3)cn2CCN1Cc1ccccc1F` [Example 307, 2-(2-fluorobenzyl)-9-hydroxy-7-(thiazol-2-yl)-3,4-dihydro-2H-pyrido[1,2-a]pyrazine-1,8-dione], the IC50 lay in the range of 100 to 1000 nM.
Next, `CC(=O)OCC(C)(C)C(=O)c1cn2ccn(Cc3cccc(Cl)c3)c(=O)c2c(O)c1=O` [Example 229, 3-[2-(3-chlorobenzyl)-9-hydroxy-1,8-dioxo-1,8-dihydro-2H-pyrido[1,2-a]pyrazin-7-yl]-2,2-dimethyl-3-oxopropyl acetate hydrochloride]: less than 10 nM; `O=C1c2c(O)c(=O)c(NS(=O)(=O)Cc3ccccc3)cn2CCN1Cc1ccc(F)c(Cl)c1` [Example 419, N-[2-(3-chloro-4-fluorobenzyl)-9-hydroxy-1,8-dioxo-1,3,4,8-tetrahydro-2H-pyrido[1,2-a]pyrazin-7-yl]benzylsulfonamide]: less than 10 nM.
Next, `CC(=O)c1cc(=O)c(O)c2n1CCN(Cc1ccc(Cl)c(Cl)c1)C2=O` [Example 35, 6-acetyl-2-(3,4-dichlorobenzyl)-9-hydroxy-3,4-dihydro-2H-pyrido[1,2-a]pyrazine-1,8-dione]: 10 to 100 nM; `COc1cc(Cl)ccc1Cn1ccn2ccc(=O)c(O)c2c1=O` [Example 166, 2-(4-chloro-2-methoxybenzyl)-9-hydroxy-2H-pyrido[1,2-a]pyrazine-1,8-dione hydrochloride]: 10 to 100 nM.
Next, `CC(C)C(O)c1cn(Cc2ccc(Cl)c(Cl)c2)c(=O)c2c(O)c(=O)ccn12` (stereo not shown) [Example 432, 2-(3,4-dichlorobenzyl)-9-hydroxy-4-(1-hydroxy-2-methylpropyl)-2H-pyrido[1,2-a]pyrazine-1,8-dione]: less than 10 nM.
Regarding `O=C1c2c(O)c(=O)c(-c3nccs3)cn2CCN1CCCc1ccc(F)cc1` [Example 314, 2-[3-(4-fluorophenyl)propyl]-9-hydroxy-7-(thiazol-2-yl)-3,4-dihydro-2H-pyrido[1,2-a]pyrazine-1,8-dione], the IC50 fell in the range of 10 to 100 nM.
Next, `O=C1c2c(O)c(=O)c(-c3ncccn3)cn2CCN1Cc1cccc(Cl)c1` [Example 271, 2-(3-chlorobenzyl)-9-hydroxy-7-(pyrimidin-2-yl)-3,4-dihydro-2H-pyrido[1,2-a]pyrazine-1,8-dione hydrochloride]: 10 to 100 nM.
Turning to `Cn1ncnc1-c1cn2ccn(Cc3ccc(F)cc3)c(=O)c2c(O)c1=O` [Example 360, 2-(4-fluorobenzyl)-9-hydroxy-7-(2-methyl-2H-1,2,4-triazol-3-yl)-2H-pyrido[1,2-a]pyrazine-1,8-dione hydrochloride], the IC50 was less than 10 nM.
For `CC(C)(C)CC(=O)Nc1cn2c(c(O)c1=O)C(=O)N(Cc1ccc(F)c(Cl)c1)CC2` [Example 406, N-[2-(3-chloro-4-fluorobenzyl)-9-hydroxy-1,8-dioxo-1,3,4,8-tetrahydro-2H-pyrido[1,2-a]pyrazin-7-yl]-3,3-dimethylbutyramide], the IC50 lay within 10 to 100 nM.
In the case of `COC(=O)c1cn(Cc2cccc(Cl)c2)c(=O)c2c(O)c(=O)ccn12` [Example 93, methyl 2-(3-chlorobenzyl)-9-hydroxy-1,8-dioxo-1,8-dihydro-2H-pyrido[1,2-a]pyrazine-4-carboxylate], the IC50 fell in the range of 10 to 100 nM.
With `O=C1c2c(O)c(=O)c(-c3ccncn3)cn2CCN1Cc1ccc(F)c(Cl)c1` [Example 394, 2-(3-chloro-4-fluorobenzyl)-9-hydroxy-7-(pyrimidin-4-yl)-3,4-dihydro-2H-pyrido[1,2-a]pyrazine-1,8-dione hydrochloride], the IC50 lay in the range of 10 to 100 nM.
In the case of `O=C1c2c(O)c(=O)c(-c3nccs3)cn2CCN1CCCc1cccc(Cl)c1` [Example 299, 2-[3-(3-chlorophenyl)propyl]-9-hydroxy-7-(thiazol-2-yl)-3,4-dihydro-2H-pyrido[1,2-a]pyrazine-1,8-dione hydrochloride], the IC50 lay in the range of 10 to 100 nM.
Regarding `CC(=O)CNC(=O)c1cn2c(c(O)c1=O)C(=O)N(Cc1cccc(Cl)c1)CC2` [Example 374, N-(2-oxopropyl)-2-(3-chlorobenzyl)-9-hydroxy-1,8-dioxo-1,3,4,8-tetrahydro-2H-pyrido[1,2-a]pyrazine-7-carboxamide hydrochloride], the IC50 is 10 to 100 nM.
Take `CC(C)(C)C(=O)c1cn2ccn(CCCc3c(F)cccc3Cl)c(=O)c2c(O)c1=O` [Example 254, 2-[3-(2-chloro-6-fluorophenyl)propyl]-7-(2,2-dimethylpropionyl)-9-hydroxy-2H-pyrido[1,2-a]pyrazine-1,8-dione hydrochloride]: the IC50 is less than 10 nM.
Turning to `CNC(=O)c1cn2ccn(Cc3cccc(Cl)c3)c(=O)c2c(O)c1=O` [Example 155, N-methyl-2-(3-chlorobenzyl)-9-hydroxy-1,8-dioxo-1,8-dihydro-2H-pyrido[1,2-a]pyrazine-7-carboxamide], the IC50 was less than 10 nM.
On to `COC(=O)c1cn2c(c(O)c1=O)C(=O)N(Cc1cccc(Cl)c1)CC2` [Example 261, methyl 2-(3-chlorobenzyl)-9-hydroxy-1,8-dioxo-1,3,4,8-tetrahydro-2H-pyrido[1,2-a]pyrazine-7-carboxylate], for which the IC50 was 10 to 100 nM.
As for `O=c1ccn2c(CCO)cn(Cc3ccc(Cl)c(Cl)c3)c(=O)c2c1O` [Example 429, 2-(3,4-dichlorobenzyl)-9-hydroxy-4-(2-hydroxyethyl)-2H-pyrido[1,2-a]pyrazine-1,8-dione hydrochloride], the IC50 was in the range of 10 to 100 nM.
Under `CCNc1cn2ccn(Cc3cccc(Cl)c3)c(=O)c2c(O)c1=O` [Example 285, 2-(3-chlorobenzyl)-7-ethylamino-9-hydroxy-2H-pyrido[1,2-a]pyrazine-1,8-dione hydrochloride] stands 10 to 100 nM; under `O=C1c2c(O)c(=O)c(-c3nccs3)cn2CCN1Cc1ccc(Cl)c(Cl)c1` [Example 249, 2-(3,4-dichlorobenzyl)-9-hydroxy-7-(thiazol-2-yl)-3,4-dihydro-2H-pyrido[1,2-a]pyrazine-1,8-dione], less than 10 nM.
Take `O=C1c2c(O)c(=O)cc(-c3ccccc3)n2CCN1Cc1ccc(Cl)c(Cl)c1` [Example 49, 2-(3,4-dichlorobenzyl)-9-hydroxy-6-phenyl-3,4-dihydro-2H-pyrido[1,2-a]pyrazine-1,8-dione]: the IC50 lay within 10 to 100 nM.
Next, `CC(C)C(=O)c1cc(=O)c(O)c2n1CCN(Cc1ccc(Cl)c(Cl)c1)C2=O` [Example 47, 2-(3,4-dichlorobenzyl)-9-hydroxy-6-isobutyryl-3,4-dihydro-2H-pyrido[1,2-a]pyrazine-1,8-dione]: less than 10 nM.
